Assay results from patent publication US3965109A, “Certain aryl amino pyridines” (priority 1971, dated 1976).

Experiments:
[1] = system: Plutella maculipennis (diamond back moth larvae); experiment: Pest toxicity test; format: in vivo
[2] = system: Aphis fabae; experiment: Pest toxicity test; format: in vivo; details: 0.1% by weight; broad bean; 2 days
[3] = system: Xanthomonas oryzae; format: cell-based; details: 50 ppm; 5 days
[4] = system: Phaedon cochleariae (mustard beetles); experiment: Pest toxicity test; format: in vivo
[5] = system: Musca domestica (houseflies); experiment: Pest toxicity test, contact test; format: in vivo; details: 0.1% by weight; milk/sugar; 2 days; flies sprayed directly
[6] = system: Megoura viceae; experiment: Pest toxicity test; format: in vivo; details: 0.1% by weight; broad bean; 2 days
[7] = system: Aedes aegypti (mosquito adults); experiment: Pest toxicity test; format: in vivo; details: 0.01% by weight; plywood; 1 day
[8] = system: Tetranychus telarius (red spider mites, adults); experiment: Pest toxicity test; format: in vivo; details: 0.1% by weight; French bean; 3 days
[9] = system: Xanthomonas malvacearum; experiment: Antibacterial agar test (B3); format: cell-based; details: 50 ppm; 5 days
Description: (§1) This Example illustrates the activity of compounds used as the active ingredients of compositions according to the invention against a variety of plant bacterial diseases and fungal post-harvest saprophytic diseases. In a test for such activity, 5 milligrams of the compound to be tested was dissolved or suspended in 10 ml. of acetone and enough of this solution or suspension was added to 18 ml. of nutrient agar (for the bacterial diseases) or 16 ml. of 2% malt agar (for the fungal diseases) to give a final concentration of 50 parts per million of the compound under test. A streptomycin preparation (2 ml. containing 100 units per ml.) was added to the malt agar to prevent bacterial contamination of the fungal tests.
(§2) The agar preparations were dried overnight in Petri dishes and inoculated the following morning with the bacterial or fungal diseases using a multipoint inoculator. The antibacterial activity was assessed after 5 days and the antifungal activity after 6 days. The results of the tests are set out in Table 16 (anti bacterial activity) and Table 17 (antifungal activity). The results are graded as in Example 1 above.

[10] = system: Corynebacterium michiganense; experiment: Antibacterial agar test (B2); format: cell-based; details: 50 ppm; 5 days
Description: as §1, §2

[11] = system: Pseudomonas syringae; experiment: Antibacterial agar test (B6); format: cell-based; details: 50 ppm; 5 days
[12] = system: Agrobacterium tumifaciens; experiment: Antibacterial agar test (B1); format: cell-based; details: 50 ppm; 5 days
[13] = system: Erwinia carotovora; experiment: Antibacterial agar test (B4); format: cell-based; details: 50 ppm; 5 days
[14] = system: Streptomyces scabies; experiment: Antibacterial agar test (B7); format: cell-based; details: 50 ppm; 5 days
[15] = system: Aedes aegypti (mosquito larvae); experiment: Pest toxicity test; format: in vivo; details: for Mortality grading (kill): 0.01% by weight, water, 1 day
[16] = system: Tetranychus telarius (red spider mites, eggs); experiment: Pest toxicity test; format: in vivo; details: 0.1% by weight; French bean; 3 days
[17] = system: Plasmopara viticola (vine); experiment: Fungicidal test against foliar disease C (foliage spray plus soil drench); format: in vivo; details: 100 ppm spray and drench; 10 days
[18] = system: Pieris brassicae (cabbage white caterpillars); experiment: Pest toxicity test; format: in vivo; details: 0.1% by weight, 2 days
[19] = system: Puccinia recondita (wheat); experiment: Fungicidal test against foliar disease A (foliage spray plus soil drench); format: in vivo; details: 100 ppm spray and drench; 10 days
[20] = system: Piricularia oryzae (rice); format: in vivo; details: 100 ppm spray and drench; 7 days
[21] = system: Maize; experiment: Herbicidal test, pre- and post-emergence; format: in vivo; details: 10 kg/ha; scale 0 to 3 (complete kill)
[22] = system: Wheat; experiment: Herbicidal test, pre- and post-emergence; format: in vivo; details: 10 kg/ha; scale 0 to 3 (complete kill)
[23] = system: Lettuce; experiment: Herbicidal test, pre- and post-emergence; format: in vivo; details: 10 kg/ha; scale 0 to 3 (complete kill)
[24] = system: Tomato; experiment: Herbicidal test, pre- and post-emergence; format: in vivo; details: 10 kg/ha; scale 0 to 3 (complete kill)
[25] = system: Uncinula necator (vine); experiment: Fungicidal test against foliar disease D (foliage spray plus soil drench); format: in vivo; details: 100 ppm spray and drench; 10 days
[26] = 0.1% by weight, mustard/paper, 2 days

SMILES | Mortality grading (kill) ([1]; in vivo) | Mortality grading (kill) [2] | Antibacterial activity grading B5 [3] | Mortality grading (kill) ([4]; in vivo) | Mortality grading (kill), contact test [5] | Mortality grading (kill) [6] | Mortality grading (kill) [7] | Mortality grading (kill) [8] | Antibacterial activity grading B3 [9] | Antibacterial activity grading B2 [10] | Antibacterial activity grading B6 [11] | Antibacterial activity grading B1 [12] | Antibacterial activity grading B4 [13] | Antibacterial activity grading B7 [14] | Mortality grading (kill) [15] | Mortality grading (kill) [16] | Mortality grading (kill) [18] | Amount of disease grading, disease C (Table 4) [17] | Amount of disease grading, disease A (Table 4) [19] | Amount of disease grading, disease D (Table 4) [25] | further results
O=[N+]([O-])c1ccc(Nc2c(Cl)c(F)nc(F)c2Cl)c([N+](=O)[O-])c1 [Compound 1, 3,5-dichloro-2,6-difluoro-4(2,4-dinitroanilinopyridine] | 0 (key: O represents less than 30% kill; 1 represents 30 - 49% kill; 2 represents 60 - 90% kill; 3 represents over 90% kill; C indicates a chemosterilant effect.; A indicates an antifeeding effect.) | 3 (3 represents over 90% kill) | 3 (0 to 5) | 0 (key: O represents less than 30% kill; 1 represents 30 - 49% kill; 2 represents 60 - 90% kill; 3 represents over 90% kill; C indicates a chemosterilant effect.; A indicates an antifeeding effect.) | 0 (O represents less than 30% kill) | 3 (3 represents over 90% kill) | 2 (2 represents 60 - 90% kill) | 3 (3 represents over 90% kill) | 3 (0 to 5) | 3 (0 to 5) | 3 (0 to 5) | 3 (0 to 5) | 3 (0 to 5) | 3 (0 to 5) | 0 (O represents less than 30% kill) | 0 (O represents less than 30% kill) | – | – | – | – | abnormal growth effects in larva of mosquitos ([15]; in vivo): abnormal growth effects
Fc1nc(F)c(Cl)c(Nc2c(F)c(F)c(F)c3c(F)c(F)c(F)c(F)c23)c1Cl [Compound 20, 3,5-Dichloro-2,6-difluoro-4(1-heptafluoronaphthylamino)pyridine] | 3 (key: O represents less than 30% kill; 1 represents 30 - 49% kill; 2 represents 60 - 90% kill; 3 represents over 90% kill; C indicates a chemosterilant effect.; A indicates an antifeeding effect.) | 2 (2 represents 60 - 90% kill) | 1 (26 to 60) | 0 (key: O represents less than 30% kill; 1 represents 30 - 49% kill; 2 represents 60 - 90% kill; 3 represents over 90% kill; C indicates a chemosterilant effect.; A indicates an antifeeding effect.) | 0 (O represents less than 30% kill) | 2 (2 represents 60 - 90% kill) | 0 (O represents less than 30% kill) | 3 (3 represents over 90% kill) | 3 (0 to 5) | 3 (0 to 5) | 2 (6 to 25) | 0 (61 to 100) | 2 (6 to 25) | 2 (6 to 25) | 1 (1 represents 30 - 49% kill) | 3 (3 represents over 90% kill) | 0 (O represents less than 30% kill) | – | – | – | Amount of disease grading, disease C [17]: 3 (0 to 5); Amount of disease grading, disease A [19]: 3 (0 to 5); Amount of disease grading, disease E [20]: 2 (6 to 25)
O=[N+]([O-])c1cc(Br)c(Nc2c(Cl)c(F)nc(F)c2Cl)c([N+](=O)[O-])c1 [Compound 40, 4(2-Bromo-4,6-dinitroanilino)-3,5-dichloro-2,6-difluoropyridine] | 0 (key: O represents less than 30% kill; 1 represents 30 - 49% kill; 2 represents 60 - 90% kill; 3 represents over 90% kill; C indicates a chemosterilant effect.; A indicates an antifeeding effect.) | 3 (3 represents over 90% kill) | 2 (6 to 25) | 2 (key: O represents less than 30% kill; 1 represents 30 - 49% kill; 2 represents 60 - 90% kill; 3 represents over 90% kill; C indicates a chemosterilant effect.; A indicates an antifeeding effect.) | 3 (3 represents over 90% kill) | 3 (3 represents over 90% kill) | 0 (O represents less than 30% kill) | 3 (3 represents over 90% kill) | 3 (0 to 5) | 2 (6 to 25) | 1 (26 to 60) | 2 (6 to 25) | 1 (26 to 60) | 2 (6 to 25) | 3 (3 represents over 90% kill) | 3 (3 represents over 90% kill) | 0 (O represents less than 30% kill) | 3 (0 to 5) | 0 (61 to 100) | 3 (0 to 5) | Damage to plants, post-emergence [21]: 0; Damage to plants, pre-emergence [21]: 1; Damage to plants, post-emergence [22]: 0; Damage to plants, pre-emergence [22]: 1; Damage to plants, post-emergence [23]: 3; Damage to plants, pre-emergence [23]: 3; Damage to plants, post-emergence [24]: 1; Damage to plants, pre-emergence [24]: 3; Amount of disease grading, disease E (Table 4) [20]: 1 (26 to 60)
O=[N+]([O-])c1ccc(Nc2c(Cl)c(Cl)nc(Cl)c2Cl)c(C(F)(F)F)c1 [Compound 41, 4(4-Nitro-2-trifluoromethylanilino)-tetrachloropyridine] | – | 0 (O represents less than 30% kill) | 1 (26 to 60) | – | 2 (2 represents 60 - 90% kill) | 0 (O represents less than 30% kill) | 0 (O represents less than 30% kill) | 3 (3 represents over 90% kill) | 2 (6 to 25) | 0 (61 to 100) | 1 (26 to 60) | 3 (0 to 5) | 1 (26 to 60) | 0 (61 to 100) | 3 (3 represents over 90% kill) | 3 (3 represents over 90% kill) | 0 (O represents less than 30% kill) | 3 (0 to 5) | 0 (61 to 100) | 3 (0 to 5) | Mortality grading (kill) [1, 26]: 1 (1 represents 30 - 49% kill); Mortality grading (kill) [4, 26]: 2 (2 represents 60 - 90% kill)
